Assay results: patent publication US9616062B2, “Cyclin dependent kinase inhibitors and methods of use” (priority 2009, dated 2017)

Tests used:
[1] = system: primary human renal proximal tubule epithelial cells; assay: Protection from etoposide-induced cell death, CellTiter-Glo on day 7; assay type: cell-based; conditions: 16 h pretreatment, 2.5 μM etoposide 8 h, 7 days recovery
Procedure: FIG. 5: CDK4/6 inhibition protects primary human renal proximal tubule epithelial cells from etoposide-induced cell death. PD0332991 inhibits chemotherapy-induced cytotoxicity in a cdk4/6 dependent manner. Primary human renal proximal tubule epithelial cells were incubated with 30 nM or 100 nM PD0332991 for 16 hours. Etoposide (Etop, 2.5 μM) was added for 8 hours. Following incubation, the media was replaced with fresh media and the cells were incubated for an additional 7 days. On day 7, cell proliferation was assessed using CellTiter-Glo® (Promega, Madison, Wis., United States of America). Error bars show +/−standard deviation.
Primary normal human renal proximal epithelial cells (American Type Culture Collection (ATCC), Manassas, Va., United States of America) were cultured in renal epithelial cell basal media supplemented with renal epithelial cell growth kit according to the manufacturer's recommendations. […] For the γH2AX assay, cells were fixed, permeabilized, and stained with anti-γH2AX as per γH2AX Flow Kit (Millipore, Billerica, Mass., United States of America). γH2AX levels were assessed by flow cytometry. Cell proliferation was assessed by seeding 1×10^3 cells per well in a 96-well tissue culture plate in 100 μL of growth medium. […] 100 μL of TOXILIGHT™ reagent is added and incubated for 5 minutes and read in a luminometer at 1 second/well. […]

[2] = system: germinal center formation; assay: Germinal center formation in mice (Ki67 immunohistochemistry); assay type: in vivo, mouse; conditions: 150 mg/kg by oral gavage
Procedure: Mice were treated with PD0332991 (150 mg/kg by oral gavage). Germinal center formation was assessed by Ki67 immunohistochemistry.
Acute, pharmacologic inhibition of CDK4/6 suppresses lymphocyte proliferation with the most pronounced effect on memory T cell homeostatic proliferation and germinal center formation in mice. To determine whether inhibiting CDK4/6 affects memory cell generation and maintenance, mice were treated with selective CDK4/6 inhibitors, PD 0332991 or an unrelated selective CDK4/6 inhibitor, 2BrIC. 2BrIC was synthesized by OTAVA Chemicals (Kiev, Ukraine) and can be prepared according to methods described in Zhu et al., J. Med. Chem. 46, 2027-2030 (2003).
Cohorts of wild type mice were treated with vehicle or a CDK4/6 inhibitor as in FIG. 11. […] Unstimulated mice were treated for 24 hours with PD0332991 and homeostatic B cell proliferation measured by Ki67 staining after appropriate sorting. Similar results were obtained using BrdU incorporation to measure splenic B cell proliferation. Similar experiments were undertaken in human cells with B cell receptor stimulation as described in FIG. 12.

[3] = system: primary human renal proximal tubule epithelial cells; assay: Cell proliferation, CellTiter-Glo, 72 hours; assay type: cell-based; conditions: 0, 10 nM-3 μM, 72 hours post exposure
Procedure: FIG. 3: CDK4/6 inhibition blocks proliferation of primary human renal proximal tubule epithelial cells. Cells were treated with varying concentrations of PD0332991 for 72 hours. Following incubation, cell proliferation was quantified using CellTiter-Glo® (Promega, Madison, Wis., United States of America). Data represent the mean of four replicates (relative light units, RLU) +/−standard deviation.
Primary normal human renal proximal epithelial cells (American Type Culture Collection (ATCC), Manassas, Va., United States of America) were cultured in renal epithelial cell basal media supplemented with renal epithelial cell growth kit according to the manufacturer's recommendations. […] For the γH2AX assay, cells were fixed, permeabilized, and stained with anti-γH2AX as per γH2AX Flow Kit (Millipore, Billerica, Mass., United States of America). γH2AX levels were assessed by flow cytometry. Cell proliferation was assessed by seeding 1×10^3 cells per well in a 96-well tissue culture plate in 100 μL of growth medium. […] At the end of the recovery period, cell number was quantified using CellTiter-Glo® (Promega, Fitchburg, Wis., United States of America) or WST-1 reagent (TaKaRa Bio USA, Madison, Wis., United States of America). […] 100 μL of TOXILIGHT™ reagent is added and incubated for 5 minutes and read in a luminometer at 1 second/well. […]

[4] = system: primary human renal proximal tubule epithelial cells; assay: γH2AX flow cytometry assay of etoposide-induced DNA damage; assay type: cell-based; conditions: 0, 100 nM, 300 nM or 1 μM for 16 h, then 2.5 μM etoposide for 8 h
Procedure: Cells were pretreated for 16 hours with PD0332991 followed by 8 hours with etoposide (Etop). Cells were collected, fixed and stained with anti-γH2AX FITC and analyzed by flow cytometry. Data was analyzed using FlowJo (Treestar, Inc., Ashland, Oreg., United States of America). The % γH2AX positive cells are shown in the accompanying graph.
Primary normal human renal proximal epithelial cells (American Type Culture Collection (ATCC), Manassas, Va., United States of America) were cultured in renal epithelial cell basal media supplemented with renal epithelial cell growth kit according to the manufacturer's recommendations. […] For the γH2AX assay, cells were fixed, permeabilized, and stained with anti-γH2AX as per γH2AX Flow Kit (Millipore, Billerica, Mass., United States of America). γH2AX levels were assessed by flow cytometry. Cell proliferation was assessed by seeding 1×10^3 cells per well in a 96-well tissue culture plate in 100 μL of growth medium. […] At the end of the recovery period, cell number was quantified using CellTiter-Glo® (Promega, Fitchburg, Wis., United States of America) or WST-1 reagent (TaKaRa Bio USA, Madison, Wis., United States of America). Cellular cytotoxicity was assessed using the TOXILIGHT™ Bioassay kit (Lonza, Basel, Switzerland) which measures cytolysis by quantifying the release of Adenylate Kinase into the culture media. […]

CC(=O)c1c(C)c2cnc(Nc3ccc(N4CCNCC4)cn3)nc2n(C2CCCC2)c1=O [PD0332991, 6-acetyl-8-cyclopentyl-5-methyl-2-(5-piperazin-1-yl-pyridin-2-ylamino)-8H-pyrido-[2,3-d]-pyrimidin-7-one]
protection from etoposide-induced cell death [1]: protection from etoposide induced cell death
germinal center formation (Ki67) [2]: selectively suppresses germinal center formation
inhibition of cell proliferation vs DMSO control [3]: clear dose dependent inhibition of cell proliferation
etoposide-induced DNA damage (% γH2AX positive cells) [4]: abrogates etoposide-induced DNA damage
